Results from US8987170B2, “Succinimide compound” (Sumitomo Chemical Company, Limited, priority 2013, dated 2015).

Assays:
Format in all cases: cell-based
Pythium zingiberis [1] = experiment: Antibacterial test on Pythium zingiberis (Test Example 1), mycelium growth on PDA medium; conditions: 500 ppm in PDA medium
Protocol: A predetermined amount of Compound (1) was dissolved in dimethyl sulfoxide, and the resulting solution was added to a potato dextrose agar medium (PDA medium) so as to have a final concentration of 500 ppm. Separately, an agar piece containing bacteria cut out from the bacterial flora peripheral part of Pythium zingiberis pre-cultured in an additive-free PDA medium was inoculated on the PDA medium containing Compound (1), and cultured at 12° C. or 27° C., and then the mycelium growth inhibition rate was measured by the following Expression 1: Mycelium growth inhibition rate(%)=100−(Diameter of bacterial flora in added medium)/(Diameter of bacterial flora in additive-free medium)×100 Expression 1

Pythium zingiberis [2] = experiment: Antibacterial test on Pythium zingiberis (Test Example 2), comparison with comparative compound; conditions: 96 h, 500 ppm in PDA medium, cultured at 27° C. for 4 days, read-out: Mycelium growth inhibition rate (%)
Protocol: A predetermined amount of Compound (1) was dissolved in dimethyl sulfoxide, and the resulting solution was added to a potato dextrose agar medium (PDA medium) so as to have a final concentration of 500 ppm. Separately, an agar piece containing bacteria cut out from the bacterial flora peripheral part of Pythium zingiberis pre-cultured in an additive-free PDA medium was inoculated on the PDA medium containing Compound (1), and cultured at 27° C. for 4 days, and then the mycelium growth inhibition rate was measured by Expression 1. In addition, the test was conducted in the same manner, using N-[7-fluoro-3,4-dihydro-3-oxo-4-(2-propynyl)-2H-1,4-benzoxazin-6-yl]cyclohex-1-ene-1,2-dicarboxamide as a comparative example, in place of Compound (1).

Pythium debaryanum = experiment: Antibacterial test on Pythium debaryanum, mycelium growth state on PDA medium; conditions: predetermined concentration in PDA medium; cultured at 27° C.
Protocol: A predetermined amount of Compound (1) was dissolved in dimethyl sulfoxide, and the resulting solution was added to a potato dextrose agar medium (PDA medium) so as to have a final concentration of predetermined concentration. Separately, an agar piece containing bacteria cut out from the bacterial flora peripheral part of Pythium debaryanum pre-cultured in an additive-free PDA medium was inoculated on the PDA medium containing Compound (1), and cultured at 27° C., and then the mycelium growth state was observed.

C#CCN1C(=O)COc2cc(F)c(N3C(=O)C4CC=CCC4C3=O)cc21 (stereo not shown) [Compound (1), N-[7-fluoro-3,4-dihydro-3-oxo-4-(2-propynyl)-2H-1,4-benzoxazin-6-yl]cyclohex-4-ene-1,2-dicarboxamide]
inhibition at 500 ppm (Pythium zingiberis [1]; 24 h, culture temperature 27° C., observation Day 1, read-out: Mycelium growth inhibition rate (%)): 53% | inhibition at 500 ppm (Pythium zingiberis [1]; 96 h, culture temperature 12° C., observation Day 4, read-out: Mycelium growth inhibition rate (%)): 100% | inhibition at 500 ppm (Pythium zingiberis [2]): 50% | effect of controlling Pythium debaryanum (mycelium growth state observed) (Pythium debaryanum): has an effect of controlling Pythium debaryanum
